In patent US20220073495A1 (priority 2020, published 2022):
pIC50: −log10 of the molar value. Like-named read-outs stand apart in the source and are kept apart here.

How the values were obtained:
[1] = test system: A/WSN/33; assay: microbe, parasite or virus in culture; format: cell-based, influenza virus; conditions: unidentified influenza virus, WSN, A549, 24 h; for pIC50: read-out: WSN IC50, A549 cells, A/WSN/33 MOI 0.01, 24 h post infection, NP-positive cells; for IC90: read-out: WSN IC90, A549 cells, A/WSN/33 MOI 0.01, 24 h post infection, NP-positive cells
[2] = test system: A549 cells; conditions: human
[3] = in vitro; conditions: human
[4] = test system: viral M mRNA; assay: smRNA-FISH of M mRNA in WSN-infected cells; format: cell-based, influenza virus (WSN); conditions: 2.5 μM, WSN MOI 2 for 8 h
[5] = test system: HA mRNA; assay: smRNA-FISH of HA mRNA in WSN-infected cells; format: cell-based, influenza virus (WSN); conditions: 2.5 μM, WSN MOI 2 for 8 h
[6] = test system: NS mRNA; assay: smRNA-FISH of NS mRNA in WSN-infected cells; format: cell-based, influenza virus (WSN); conditions: 2.5 μM, WSN MOI 2 for 8 h
[7] = test system: bulk cellular poly(A) RNA; assay: RNA-FISH of poly(A) RNA in uninfected cells; format: cell-based, Human; conditions: 2.5 μM
[8] = test system: cellular GAPDH mRNA; assay: smRNA-FISH of GAPDH mRNA in uninfected cells; format: cell-based, Human; conditions: 2.5 μM
[9] = test system: M1 to M2 splicing; format: cell-based, influenza virus (WSN); conditions: 1 μM or 2.5 μM, WSN MOI 2 for 8 h
[10] = test system: NS1 to NS2 splicing; assay: qPCR of relative ratio of NS2 to NS1 mRNAs; format: cell-based, influenza virus (WSN); conditions: 1 μM or 2.5 μM, WSN MOI 2 for 8 h
[11] = test system: cellular ATP levels; assay: Cellular ATP levels (CellTiter-Glo); format: cell-based; conditions: 2.5 μM, 24 h
Experimental: FIG. 30 depicts cellular ATP levels measured in cells treated with 0.1% DMSO or 2.5 μM of compound 2 at 24 h. Four independent experiments were performed and each contained 6 technical replicates.
ATP was measured by luminescence using the CellTiter-Glo kit (Promega) according to the manufacturer's instructions.

[12] = test system: cellular RNAs; assay: Cell fractionation and RNAseq of poly(A) RNA; format: cell-based, human; conditions: 2.5 μM, 9 hours, cutoff 1.5-fold
[13] = test system: viral proteins (M1, M2, NA, HA); format: cell-based, A/WSN33
[14] = test system: A/WSN/33 (H1N1); format: cell-based, influenza A virus
[15] = test system: A/Vietnam/1203/04 (H5N1); format: cell-based, influenza A virus
[16] = test system: A/Panama/99 (H3N2); format: cell-based, influenza A virus
[17] = test system: A/WSN/33; format: cell-based, influenza virus
[18] = test system: primary human bronchial epithelial cells (HBEC); assay: Cell viability of primary human bronchial epithelial cells (CellTiter-Glo); format: cell-based; conditions: 24 h
Experimental: FIG. 38 depicts compound 2 inhibiting influenza virus replication in primary human bronchial epithelial cells at non-toxic concentrations. […] (B) Cell viability was monitored at 24 h after treatment with 0.1% DMSO or compound 2 at the depicted concentrations using CellTiter-Glo. Three independent experiments were performed.

[19] = test system: A549 cells; assay: MTT cytotoxicity assay

## Cn1c(SCC(=O)Nc2ccc(Br)cn2)nc2ccccc21 [Compound 1]
[1]
  pIC50: 5.72
  IC90: 12.1 µM
[2]
  24 h MTT CC10: 1.417 µM
[3]
  CC50: > 50 µM

## O=C(CSc1nc2ccccc2[nH]1)Nc1ccc(Br)cn1 [Compound 2, 2-((1H-benzo[d]imidazol-2-yl)thio)-N-(5-bromopyridin-2-yl)acetamide]
[1]
  pIC50: 5.50
  IC90: 16.9 µM
[4]
  nuclear export of viral M mRNA: robustly inhibited
  total M mRNA fluorescence intensity: did not alter
[5]
  nuclear export of HA mRNA: robustly inhibited
[6]
  nuclear retention of NS mRNA: weak nuclear retention
  total levels of the NS mRNA: not altered
[7]
  poly(A) RNA nuclear to cytoplasmic ratio: slightly decreased
  total levels of bulk cellular poly(A) RNA: did not affect
[8]
  GAPDH mRNA nuclear to cytoplasmic distribution: not affected
  total levels of cellular GAPDH mRNA: slightly decreased
[9]
  M1 to M2 splicing (relative ratio of M2 to M1 mRNAs): No effect
[10]
  NS1 to NS2 splicing: slightly inhibited
[11]
  cellular ATP levels as a surrogate for cytotoxicity: no significant change
[12]
  mRNAs down-regulated: 829 mRNAs
  mRNAs more cytoplasmic compared to control cells: 98 mRNAs
  mRNAs preferentially retained in the nucleus: 96 mRNAs
  mRNAs up-regulated: 103 mRNAs
  mRNAs with altered nuclear to cytoplasmic distribution: 194 mRNAs
[13]
  levels of the viral M1 and M2 proteins as well as NA and HA proteins: decrease
[14]
  IC50 in plaque assay relative to NP assay (less): ~2 fold
  viral replication (viral titer): inhibited
[15]; A549 cells, MOI 0.01, 24 h
  viral replication (viral titer): inhibited
[15]; A/Vietnam/1203/04, plaque assay vs NP assay
  IC50 in plaque assay relative to NP assay (less): ~2 fold
[16]
  IC50 in plaque assay relative to NP assay (less): ~2 fold
  viral replication (viral titer): inhibited
[17]
  viral replication in primary human bronchial epithelial cells: inhibited
[18]
  cell viability of HBEC: non-toxic
[3]; A549 cells
  CC50 at 24 h: > 50 µM
[19]; 24 h, concurrent with immunostaining
  24 h MTT CC10: 5.839 µM
[19]; MTT, 24 h or 48 h
  cell viability at concentrations inhibiting replication: did not significantly alter

## Cc1cccc2[nH]c(SCC(=O)Nc3ccc(Br)cn3)nc12 [Compound 3]
[1]
  pIC50: 5.31
  IC90: 10 µM
[2]
  24 h MTT CC10: 0.683 µM
[3]
  CC50: > 50 µM

## O=C(CSc1nc2ccccc2[nH]1)Nc1ccc(Br)cc1 [Compound 4]
[1]
  pIC50: < 4.30
  IC90: > 50 µM
[2]
  24 h MTT CC10: >50 µM
[3]
  CC50: > 50 µM

## NC(=O)CSc1nc2ccccc2[nH]1 [Compound 5]
[1]
  pIC50: < 4.30
  IC90: > 50 µM
[2]
  24 h MTT CC10: >50 µM
[3]
  CC50: > 50 µM

## O=C(CS(=O)(=O)c1nc2ccccc2[nH]1)Nc1ccc(Br)cn1 [Compound 6]
[1]
  pIC50: 4.65
  IC90: > 50 µM
[2]
  24 h MTT CC10: 23.361 µM
[3]
  CC50: > 50 µM

## O=C(C[S+]([O-])c1nc2ccccc2[nH]1)Nc1ccc(Br)cn1 (centres unmarked) [Compound 7]
[1]
  pIC50: 4.92
  IC90: > 50 µM
[2]
  24 h MTT CC10: 31.074 µM
[3]
  CC50: > 50 µM

## O=C(CSc1nc2ccccc2[nH]1)NCc1ccccn1 [Compound 8]
[1]
  pIC50: < 4.30
  IC90: > 50 µM
[2]
  24 h MTT CC10: >50 µM
[3]
  CC50: > 50 µM

## O=C(CSc1nc2ccccc2[nH]1)NCc1ccccc1 [Compound 9]
[1]
  pIC50: < 4.30
  IC90: > 50 µM
[2]
  24 h MTT CC10: >50 µM
[3]
  CC50: > 50 µM

## O=C(CSc1nc2ccccc2[nH]1)NC1CCCCC1 [Compound 10]
[1]
  pIC50: < 4.30
  IC90: > 50 µM
[2]
  24 h MTT CC10: >50 µM
[3]
  CC50: > 50 µM

## O=C(CSc1nc2ccccc2[nH]1)Nc1ccccn1 [Compound 11]
[1]
  pIC50: < 4.30
  IC90: > 50 µM
[2]
  24 h MTT CC10: >50 µM
[3]
  CC50: > 50 µM

## CC(Sc1nc2ccccc2[nH]1)C(=O)Nc1ccc(Br)cn1 (centres unmarked) [Compound 12]
[1]
  pIC50: < 4.30
  IC90: > 50 µM
[2]
  24 h MTT CC10: >50 µM
[3]
  CC50: > 50 µM

## COc1ccc(C2C(CC(C)C(=O)Nc3ccc(Br)cn3)=Cc3ccccc32)cc1 (centres unmarked) [Compound 14]
[1]
  pIC50: < 4.30
  IC90: > 50 µM
[2]
  24 h MTT CC10: 15.941 µM
  CC50: > 50 µM

## Cc1ccc(NC(=O)CCc2nc3ccccc3o2)nc1 [Compound 15]
[1]
  pIC50: 4.51
  IC90: > 50 µM
[2]
  24 h MTT CC10: >50 µM
  CC50: > 50 µM
